According to patent publication US20110151455A1, “Fish-ribosyn for antibiotic susceptibility testing” (University of South Florida, priority 2006, published 2011):
Values after ≈ are worked out from the molar mass of the structure shown. “Also recorded” adds a separate entry of the source.

Assays:
[1] = system: Acinetobacter lwoffii (ATCC 15309); assay: FISH-RiboSyn of antibiotic treated batch cultures (dF/dt); assay type: cell-based; parameters: ratio of dF/dt compared to the control: concentration or dose not given beside the values; conditions: for effect on ribosome synthesis: in words
Description: Acinetobacter lwoffii (ATCC 15309) was cultured on nutrient agar plates inoculated from a frozen glycerol/bead stock. After incubation for 24 hours at 32° C., a single colony was removed from the plate with a sterile loop and streaked on a second nutrient agar plate. The sterile loop was then submerged in a test tube containing 10 mL of […] which was incubated for 12 hours and 1 mL of grown culture was added to 1 mL of 4% paraformaldehyde (PFA) and incubated for 1 hour. The sample was then centrifuged at 10,000 G for 5 minutes, the supernatant decanted, and the cell pellet resuspended in ethanol PBS. Fluorescence in situ hybridization (FISH) with a genus specific probe was performed on this sample to verify culture purity before proceeding with the experiment. After culture purity was verified, the plated culture was incubated for 24 hours and a single colony was picked with a sterile loop and transferred to a 10 mL test tube of nutrient broth and incubated for 14 hours. The primary culture for this experiment was inoculated by transferring 1 mL from the test tube to a 100 mL nutrient broth flask. The optical density (OD at wavelength of 600 nm) of the culture was monitored over time until OD=0.449. At this time 10 mL of culture was transferred to four separate flasks containing 90 mL of nutrient broth and an appropriate amount of antibiotic. […] (Wisplinghoff et al. (2000)). Flask 4 was untreated as a control culture. At the same time, 9 mL of the primary culture was added to a 50 mL conical containing 1 mL of 1 mg/mL chloramphenicol for a final concentration of 100 μg/mL. Samples of 1 mL were taken from the chloramphenicol treated cell culture at 0, 5, 10, 15, and 20 minutes and incubated in 1 mL of 4% PFA for at least one hour. These samples were then centrifuged at 10,000 G for 5 minutes, the supernatant decanted and cell pellets resuspended in ethanol PBS and stored at −20° C. until evaluated by FISH.
A dilution series of a growing culture of A. lwoffii was previously used to determine the relationship between OD (at 600 nm) and CFU/mL by plating diluted samples on nutrient agar plates at various values of OD and performing plate counts.
Treated flasks were allowed to incubate for 30 minutes and which time 9 mL of the primary culture was added to a 50 mL conical containing 1 mL of 1 mg/mL chloramphenicol for a final concentration of 100 μg/mL. Samples of 1 mL were taken from the chloramphenicol treated cell culture at 0, 5, 10, 15, and 20 minutes and incubated in 1 mL of 4% PFA for at least one hour. These samples were then centrifuged at 10,000 G for 5 minutes, the supernatant decanted and cell pellets resuspended in ethanol PBS and stored at −20° C. until evaluated by FISH. This was repeated for each flask at 90, 150, and 210 minutes of incubation with the antibiotic.
All images were analyzed using the Image-Pro Plus (v6.2.0.424) software package. Only single cells or diplococci were included in analysis. Images were thresholded using the “Automatic Bright Objects” option in the measurement console. Occasionally this algorithm excluded dim objects if bright objects were present. In these cases the manual thresholding was used to find the optimal thresholding range. […] The highest size threshold used for these cells was 5,000 pixels^2.

[2] = system: Acinetobacter lwoffii (ATCC 15309); assay: Optical density of antibiotic treated batch cultures; assay type: cell-based; conditions: experimental batch culture compared to control
Description: Acinetobacter lwoffii (ATCC 15309) was cultured on nutrient agar plates inoculated from a frozen glycerol/bead stock. After incubation for 24 hours at 32° C., a single colony was removed from the plate with a sterile loop and streaked on a second nutrient agar plate. The sterile loop was then submerged in a test tube containing 10 mL of […] which was incubated for 12 hours and 1 mL of grown culture was added to 1 mL of 4% paraformaldehyde (PFA) and incubated for 1 hour. The sample was then centrifuged at 10,000 G for 5 minutes, the supernatant decanted, and the cell pellet resuspended in ethanol PBS. Fluorescence in situ hybridization (FISH) with a genus specific probe was performed on this sample to verify culture purity before proceeding with the experiment. After culture purity was verified, the plated culture was incubated for 24 hours and a single colony was picked with a sterile loop and transferred to a 10 mL test tube of nutrient broth and incubated for 14 hours. The primary culture for this experiment was inoculated by transferring 1 mL from the test tube to a 100 mL nutrient broth flask. The optical density (OD at wavelength of 600 nm) of the culture was monitored over time until OD=0.449. […] These samples were then centrifuged at 10,000 G for 5 minutes, the supernatant decanted and cell pellets resuspended in ethanol PBS and stored at −20° C. until evaluated by FISH.

[3] = system: A. baumannii CBD1311; assay: FISH-RiboSyn antibiotic susceptibility testing (rate of ribosome synthesis, pre-16S rRNA); assay type: cell-based, Acinetobacter baumannii; conditions: 30 minutes of antibiotic exposure; for dF/dtcm (rate of ribosome synthesis): doxycycline 8 μg/mL or levofloxacin 2 μg/mL
Description: (§1) Sample collection. When it was observed that a culture was in mid-log growth phase (OD of approximately 0.4) 50 mL of the culture was transferred to a sterile flask and subjected to chloramphenicol at a final concentration of 200 mg/L. Samples (1 mL) were collected from the sub-culture every five minutes (including a sample at time zero) for a total of 20 minutes. Each sample was centrifuged at 10,000 G for 2 minutes, the supernatant was decanted, and the resulting cell pellet was resuspended in 1 mL of 4% PFA for 12-24 hours. The samples were centrifuged and supernatant decanted, as previously described, and resuspended in 2 mL of ethanol PBS (EtOH-PBS). The samples were stored at −20° C. until further analysis.
(§2) To test the effects of the antibiotic doxycycline, doxycycline (Fisher Scientific) stock solution (1 mg/mL) was added to 100-mL of fresh, sterile nutrient broth for a final concentration of 8 μg/mL. A sample from an actively growing culture (10 mL) was added to the doxycycline/nutrient broth for a final volume of 110 mL. The aforementioned transfers were performed for both the resistant strain A. baumannii CBD1311 (OD=0.378) and a susceptible strain A. baumannii^T (OD=0.324). […] Transfers were performed for A. baumannii CBD1311 (OD=0.338) and A. baumannii^T (OD=0.365) and the dilutions were sufficient to ensure that the culture was below a McFarland standard of 0.5. Additionally, controls were implemented for each transfer where an additional 10 mL of the appropriate culture was combined with 100 mL of fresh sterile nutrient broth without an antibiotic. All cultures were incubated at 32° C. and shaken continuously (200 rpm).
(§3) A fluorescently-labeled oligonucleotide hybridization probe, Acin1543, targeting the pre-16S rRNA for members of the genus Acinetobacter was synthesized (5′-[…]-3′) (SEQ ID NO:1) and conjugated with the cyanine dye, Cy3, before purification with oligonucleotide probe purification cartridges (Oerther et al. (2000b)). Fluorescently labeled probes were diluted to 50 ng/μL with RNase-free water and stored at −20° C. in the dark. Fixed samples were applied to a sample well on a 10 well Heavy Teflon Coated microscope slide (Cel-Line Associates, New Field, N.J.) and air-dried. After dehydration with an increasing ethanol series (50, 80, 95% [vol/vol] ethanol, 1 min each), each sample well was covered with a mixture of 18 μL of hybridization buffer (20% [vol/vol] formamide, 0.9 M NaC1, 100 mM Tris HCl [pH 7.0], 0.1% SDS) (DelosReyes et al. (1997)) and 2 μL of the stock fluorescently labeled oligonucleotide probe. The hybridizations were conducted in a moisture chamber containing excess hybridization buffer (to prevent dehydration of buffer on sample wells) for 1.5 h, in the dark, at 46° C. The slides were washed for 30 min at 48° C. with 50 mL of pre-warmed washing buffer solution (215 mM NaCl, 20 mM Tris HCl [pH 7.0], 0.1% SDS, and 5 mM EDTA) (DelosReyes et al. (1997)). Fixed, hybridized cells were mounted with Type FF immersion oil (Cargille, Cedar Grove, N.J.) and a cover slip. Cells were stained with 4′, 6-diamidino-2-phenylindole (DAPI) at a concentration of 1 μg/mL for 1 minute and rinsed with DI water.
(§4) Image Capture. Whole cell fluorescence was visualized with an upright epiflourescence microscope (Leitz DiaPlan, Heerbrugg, Switzerland), and digital images were captured using a Spot-FLEX charge coupled device (CCD) camera (Diagnostic Instruments, Inc., Sterling Heights, Mich.). Images were collected using a 100× oil objective and constant exposure time (1.1 sec for experiment I; 3.0 sec for experiment 2) and gain of 2.

[4] = system: A. baumannii^T; assay: as above; assay type: cell-based, Acinetobacter baumannii; conditions: for initial mean whole cell fluorescence: prior to chloramphenicol, 8-bit intensity
Description: as §1, §2, §3, §4

[5] = system: Acinetobacter baumannii CBD1311; assay: Minimum inhibitory concentration (MIC) determination; assay type: cell-based; conditions: A. baumannii CBD1311
[6] = system: Acinetobacter baumannii^T; assay: as above; assay type: cell-based; conditions: ATCC19606, A. baumannii^T, ATCC 19606
[7] = system: A. baumannii^T; assay: Growth of antibiotic treated culture by optical density (OD); assay type: cell-based, Acinetobacter baumannii; conditions: susceptible strain; levofloxacin 2 μg/mL
Description: Culturing. Four Acinetobacter strains (Table 1) were maintained on nutrient agar (Difco) at 35° C. Prior to each experiment, a single colony was used to inoculate an overnight culture of nutrient broth (Difco). Experimental cultures were prepared by transferring 1 mL of culture to a flask containing 100 mL of nutrient broth. The relationship between optical density (OD at 600 nm) and cell concentration (CFU/mL) was determined by collecting samples between an OD of 0.1 and 0.6. The samples were serially diluted (10^−4-10^−7) in sterile nutrient broth and 100 μL of diluted sample was spread on nutrient agar plates in replicates of 5. After 24 hours of incubation at 35° C., colonies were counted on plates which contained between 20 and 200 colonies.
To test the effects of the antibiotic doxycycline, doxycycline (Fisher Scientific) stock solution (1 mg/mL) was added to 100-mL of fresh, sterile nutrient broth for a final concentration of 8 μg/mL. A sample from an actively growing culture (10 mL) was added to the doxycycline/nutrient broth for a final volume of 110 mL. The aforementioned transfers were performed for both the resistant strain A. baumannii CBD1311 (OD=0.378) and a susceptible strain A. baumannii^T (OD=0.324). […]

[8] = antibiotic exposure 30 min, ampicillin 2 μg/mL, ciprofloxacin 0.25 μg/mL, doxycycline 500 μg/mL
[9] = 90 minutes of antibiotic exposure, doxycycline 8 μg/mL or levofloxacin 2 μg/mL

| MIC [5] [µg/mL] | MIC [6] [µg/mL] | SMILES | dF/dt [1, 8] | dF/dt ([1]; antibiotic exposure 90 min) | dF/dt ([1]; antibiotic exposure 150 min) | dF/dt ([1]; antibiotic exposure 210 min) | effect on ribosome synthesis [1] | ratio of dF/dt compared to the control ([1]; antibiotic exposure 30 min) [%] | ratio of dF/dt compared to the control ([1]; antibiotic exposure 90 min) [%] | ratio of dF/dt compared to the control ([1]; antibiotic exposure 210 min) [%] | dF/dtcm (rate of ribosome synthesis) [3] | dF/dtcm (rate of ribosome synthesis) [4, 9] | also measured |
| --- | --- | --- | --- | --- | --- | --- | --- | --- | --- | --- | --- | --- | --- |
|  |  | O=C(O)c1cn(C2CC2)c2cc(N3CCNCC3)c(F)cc2c1=O [Ciprofloxacin] | 4.46 | 2.42 | 0.254 | 0.308 | appear to not be synthesizing ribosomes after 150 min |  |  |  |  |  |  |
|  |  | CC1(C)S[C@@H]2[C@H](NC(=O)[C@H](N)c3ccccc3)C(=O)N2[C@H]1C(=O)O [Ampicillin] | 4.7 | 5.06 | 2.86 | 0 | impacted by the ampicillin after exposure for 150 and 210 min; also recorded: greater dF/dt than the control cells | 93 | 152 | 0 |  |  | impact on optical density [2]: mild impact; cell morphology ([1]; long exposures (T=150 min)): elongated cells |
| 16 (≈ 36 µM) | ≤ 0.125 | C[C@H]1c2cccc(O)c2C(=O)C2=C(O)[C@]3(O)C(=O)C(C(N)=O)=C(O)[C@@H](N(C)C)[C@@H]3[C@@H](O)[C@@H]21 [doxycycline] | 0.1238 | 0 | 0 | 0 |  | 2 | 0 | 0 | 4.95 | 1.38 | initial mean whole cell fluorescence ([3]; prior to chloramphenicol, 8-bit intensity): approximately 26; initial mean whole cell fluorescence ([4]; 30 minutes of antibiotic exposure): 59.6 |
| 8 (≈ 22.1 µM) | 0.25 (≈ 0.692 µM) | C[C@H]1COc2c(N3CCN(C)CC3)c(F)cc3c(=O)c(C(=O)O)cn1c23 [levofloxacin] |  |  |  |  |  |  |  |  | 5.84 | 1.67 | dF/dtcm (rate of ribosome synthesis) ([4]; 30 minutes of antibiotic exposure, doxycycline 8 μg/mL or levofloxacin 2 μg/mL): 2.23; initial mean whole cell fluorescence ([4]; 90 minutes of antibiotic exposure): 71; reduction in dF/dtcm compared to the control ([4]; 90 minutes of levofloxacin exposure): > 50%; dF/dtcm (rate of ribosome synthesis) ([4]; after 60 minutes of exposure to levofloxacin (so in the source), 2 μg/mL): 1.67; delay before cessation of growth [7]: 60 min |
